This experiment relates to CCHF vOTU. Nature of the experiment: CCHF vOTU protease inhibitors, late-stage follow-up, biochemical, fluorescence, Ub-R110 substrate (AID 743474). The note with it: Recombinant CCHF vOTU, Ub-R110 fluorescence cleavage, hits give high values.

A word on the inhibition: it is the percentage by which the read-out fell short of the control.

Activity calls are given as the source filed them. How the calls were made is not given here.

In the case of `Cc1ccccc1-c1cc2c(nn1)-c1ccccc1C2=O`, the inhibition (Assay 1, Ub-R110 substrate, at 2.23 µM) is 3.27% (inactive) and the inhibition (Assay 2, Ub-R110 substrate, at 4.46 µM) is 15.3% (inactive). For `CC1(C)C=C2C(=NN(c3ccccc3)C(N)=C2C#N)CO1`, the inhibition (Assay 1, Ub-R110 substrate, at 23.49 µM) is 22.2%. Regarding `NS(=O)(=O)c1ccc(NC2=CC(=O)C(=O)c3ccccc32)cc1`, the inhibition (Assay 1, Ub-R110 substrate, at 11.51 µM) is 21.1%. Consider `COc1cc(Br)c(C(=O)c2nccc3cc(OC)c(OC)cc23)cc1OC`, for which the inhibition (Assay 1, Ub-R110 substrate, at 1.13 µM) is 14.4% (inactive).

Regarding `COc1cc(C(=O)c2nccc3cc(OC)c(OC)cc23)c([N+](=O)[O-])cc1OC`, the inhibition (Assay 1, Ub-R110 substrate, at 4.04 µM) is 0.3% (inactive).

Turning to `Cn1nc(-c2ccccn2)nc2c(=O)n(C)c(=O)nc1-2`, the inhibition (Assay 1, Ub-R110 substrate, at 1.16 µM) is 97.3%.

Consider `CC(=O)c1ccc(NC(=S)Nc2cccc3cnccc23)cc1`, for which, for the setting “Assay 1, Ub-R110 substrate, at 7.69 µM”, the inhibition is 4.4% (inactive).

Consider `O=C(OCc1nnc(-c2ccccc2)o1)c1ccc([N+](=O)[O-])s1`, for which the inhibition (Assay 1, Ub-R110 substrate, at 26.04 µM) was 20.8%.

Take `O=C1Cc2ccccc2C(=O)N1`: the inhibition (Assay 1, Ub-R110 substrate, at 0.6 µM) was 57.9%. Regarding `O=C(COC(=O)c1ccc([N+](=O)[O-])s1)NCc1ccc(F)cc1`, the inhibition (Assay 1, Ub-R110 substrate, at 40.58 µM) was 30.5%. For `O=C(COC(=O)c1ccc([N+](=O)[O-])s1)Nc1ncc(C(F)(F)F)cc1Cl`, where the note is “Assay 1, Ub-R110 substrate, concentration not given here”, the inhibition was 41.1%. Turning to `NS(=O)(=O)c1ccc(NC(=O)COC(=O)c2ccc([N+](=O)[O-])s2)cc1`, where the note is “Assay 1, Ub-R110 substrate, at 29.01 µM”, the inhibition is 13.3% (inactive). `O=S(=O)(Nc1cc2nc3ccccc3nc2n1Cc1ccccc1)c1ccc(Cl)cc1`: the inhibition (Assay 1, Ub-R110 substrate, at 7.6 µM) is 5% (inactive).

Take `CC1COCC(C)N1C1=C(Cl)C(=O)c2ccccc2C1=O` (stereo not drawn): under “Assay 1, Ub-R110 substrate, at 14.67 µM”, the inhibition is 31.2%. Take `O=C(/C=C/c1ccc(O)cc1)c1ccc(NC2=C(N3CCCCC3)C(=O)c3ccccc3C2=O)cc1`: the inhibition (Assay 1, Ub-R110 substrate, at 10.17 µM) was 23.2%. Take `COC(CNC(=O)c1ccc2c3c(onc13)-c1ccccc1C2=O)OC`: the inhibition (Assay 1, Ub-R110 substrate, at 24.19 µM) was 52.5%. With `COc1cc(NC(=O)COC(=O)c2ccc([N+](=O)[O-])s2)cc(OC)c1OC`, the inhibition (Assay 1, Ub-R110 substrate, at 21.72 µM) is 15.2% (inactive). For the compound `O=C1C=C(Nc2ccccc2)c2ccccc2C1=O`, the inhibition (Assay 1, Ub-R110 substrate, at 15.55 µM) is 21.8%.

Consider `O=C1OC(Nc2cc(Br)cc3cccnc23)c2ccccc21` (stereo not drawn), for which the inhibition (Assay 1, Ub-R110 substrate, at 5.44 µM) was 6% (inactive).

With `O=C1Cc2ccccc2C(=O)N1Cc1ccccc1`, the inhibition (Assay 1, Ub-R110 substrate, at 1.31 µM) was 49.5%.

Regarding `O=C(O)CSc1cc(NS(=O)(=O)c2cccc([N+](=O)[O-])c2)c2ccccc2c1O`, the inhibition (Assay 1, Ub-R110 substrate, at 7.61 µM) was 0.5% (inactive).

`CC1CCCC(NC(=O)COC(=O)c2ccc([N+](=O)[O-])s2)C1C` (stereo not drawn): under “Assay 1, Ub-R110 substrate, at 31.32 µM”, the inhibition was 14.7% (inactive). Turning to `Cc1ccc(NC2=CC(=O)C(=O)c3ccccc32)cc1`, under “Assay 1, Ub-R110 substrate, at 12.24 µM”, the inhibition is 22.1%.

For the compound `O=C(c1ccco1)[C@@H]1[C@@H]2C(=O)N(c3ccc(Br)cc3)C(=O)[C@@H]2C2c3ccccc3C=CN21` (stereo partly drawn), the inhibition (Assay 1, Ub-R110 substrate, at 11.01 µM) was 16.9% (inactive). Turning to `Cc1c(Cl)cnc(NC(=O)COC(=O)c2ccc([N+](=O)[O-])s2)c1Cl`, for the setting “Assay 1, Ub-R110 substrate, at 20.44 µM”, the inhibition is 40.7%. In the case of `CCc1cc[n+](C2=C(NS(=O)(=O)c3cccs3)C(=O)c3ccccc3C2=O)cc1`, the inhibition (Assay 1, Ub-R110 substrate, at 14.16 µM) was 64.3%. Consider `CCC(CNc1cc(OC)cc2cccnc12)NC1CCCCC1` (stereo not drawn), for which, where the note is “Assay 1, Ub-R110 substrate, at 6.96 µM”, the inhibition is 3.8% (inactive). With `COc1ccccc1NC(=O)COC(=O)c1ccc([N+](=O)[O-])s1`, where the note is “Assay 1, Ub-R110 substrate, at 35.07 µM”, the inhibition is 26.7%. Take `COc1ccc2noc3c2c1C(=O)c1ccccc1-3`: the inhibition (Assay 1, Ub-R110 substrate, at 6.28 µM) was 22.7%. For the compound `O=c1[nH]c(Nc2ccccc2)cc2cc(Br)ccc12`, the inhibition (Assay 1, Ub-R110 substrate, at 1.45 µM) was 19.9% (inactive). For `CCOC(=O)N=Nc1c2ccccc2c2nc3no[nH]c3nc12`, under “Assay 1, Ub-R110 substrate, at 7.75 µM”, the inhibition is 33.2%.

On to `O=C(COC(=O)c1ccc([N+](=O)[O-])s1)Nc1ccc(F)cc1`, for which, for the setting “Assay 1, Ub-R110 substrate, at 26.34 µM”, the inhibition was 21.3%. `O=C1Cc2ccccc2C(=O)N1CCc1ccccc1`: the inhibition (Assay 1, Ub-R110 substrate, at 1.51 µM) was 3.44% (inactive) and the inhibition (Assay 2, Ub-R110 substrate, at 3.02 µM) is 10.7% (inactive).

Turning to `CN(C1=C(NC(=O)c2ccccc2)C(=O)c2ccccc2C1=O)C1CCS(=O)(=O)C1` (stereo not drawn), the inhibition reads like this: (Assay 1, Ub-R110 substrate, at 9.59 µM) 4.36% (inactive); (Assay 2, Ub-R110 substrate, at 19.18 µM) 55.5%. In the case of `Cc1ccc2c(c1C)-c1c(ccc(C)c1C)C(=O)C2=O`, the inhibition (Assay 1, Ub-R110 substrate, at 18.9 µM) is 62.5%. With `O=C(NC1=C(NC2CCS(=O)(=O)C2)C(=O)c2ccccc2C1=O)c1ccccc1` (stereo not drawn), the inhibition (Assay 1, Ub-R110 substrate, at 14.2 µM) was 49.8%.

Regarding `Cc1ccc(N2C(=O)[C@@H]3[C@H](C2=O)C2c4ccccc4C=CN2[C@@H]3C(=O)c2ccco2)cc1` (stereo partly drawn), the inhibition (Assay 1, Ub-R110 substrate, at 5.2 µM) was 33.9%. On to `O=C(NC1=CC(=O)c2ccccc2C1=O)c1ccccc1`, for which, for the setting “Assay 1, Ub-R110 substrate, at 12.37 µM”, the inhibition was 55.6%. For `COC1=C(N)C(=O)c2nc(C)ccc2C1=O`, where the note is “Assay 1, Ub-R110 substrate, at 4.98 µM”, the inhibition was 16.6% (inactive). For `CCn1nc(/C=C/c2ccccc2)nc2c(=O)n(C)c(=O)nc1-2`, where the note is “Assay 1, Ub-R110 substrate, at 0.49 µM”, the inhibition is 98%.

The record behind these values is PubChem BioAssay AID743474 (The Scripps Research Institute Molecular Screening Center, 2014).
